Where a name gives a salt, the structure may show the parent alone.
Columns and labels:
[1] = tested on: Candida albicans; assay: Activity against vaginal candidosis in rats (lowest oral dose active at the 14th day after infection); type: in vivo, Female Wistar rats; design: lowest effective oral dose (vaginal candidosis in rats): unit not given here; details: oral once a day for two days, active at 14th day after infection; for lowest effective oral dose (vaginal candidosis in rats): Table I; for minimal effective dose: Candida albicans, 336 h
Method: Experiment A: Activity of Compounds (I) Against Vaginal Candidosis in Rats
Female Wistar rats of ±100 g body weight were used. They were ovariectomized and hysterectomized and after three weeks of recovery, 100 μg of oestradiol undecylate in sesame oil was given subcutaneously once a week for 3 consecutive weeks. The thus induced pseudooestrus was controlled by microscopic examination of vaginal smears. Food and water were left available ad libitum.
The rats were infected intravaginally with 8.10^5 cells of Candida albicans, grown on Sabouraud broth for 48 hours at 37° C. and diluted with saline. The date of infection varied from day +25 to day +32 after surgical intervention, depending on the appearance of signs of induced pseudo-oestrus.
The drugs under investigation were administered orally once a day for two days starting from the day of infection. For each experiment there were placebo treated controls. The results were assessed by taking vaginal smears with sterile swabs on several days after infection. The swabs were put into Sabouraud broth in petri-dishes and incubated for 48 hours a 37° C. If no growth of Candida albicans occured, i.e., when the animals were negative at the end of the experiment, this was due to drug administration because it never happened in placebo treated controls.
The Tables I, II and III below give the lowest oral dose of the drug under investigation which was found active at the 14th day after infection.

[2] = tested on: Candida albicans; assay: Activity against crop candidosis in turkeys (dose whereby crops of 50% of animals were completely negative); type: in vivo; details: medicated feed for 13 consecutive days
Method: Experiment B: Activity of Compounds (I) Against Crop Candidosis in Turkeys
Turkeys of 14 days old were infected in the crop with 4.10^6 Candida albicans cells, grown on Sabouraud broth for 48 hours at 37° C. and diluted with saline. The volume of the inoculum was 1 ml. The drug under investigation were premixed in 500 mg of lacton and thereafter admixed in 1000 g of meal without any additives. The concentration of the drug under investigation in the meal was expressed in mg/kg.
The animals were given the medicated feed for 13 consecutive days starting on the day of infection. At the end of the experiment all animals were sacrificed. At autopsy the crops were removed, emptied and grinded in an ultra-turrax mixer in 15 ml of sterile saline. Colony counting was done on Sabouraud agar and the results given in the Tables I, II and III represent the ED50, i.e., the dose of the drug whereby the crops of 50% of the animals were completely negative for Candida albicans.

## O=C(Nc1ccc(OC[C@H]2CO[C@](Cn3ccnc3)(c3ccc(Cl)cc3Cl)O2)cc1)c1ccccc1 (relative stereo)
[1]
  lowest effective oral dose (vaginal candidosis in rats): 5
[2]; Table I
  ED50 (crop candidosis in turkeys): 63 mg/kg of feed

## O=C(Nc1ccc(OC[C@H]2CO[C@](Cn3ccnc3)(c3ccc(Cl)cc3Cl)O2)cc1)c1ccc(F)cc1 (relative stereo)
[1]
  lowest effective oral dose (vaginal candidosis in rats): 5
[2]; Table I
  ED50 (crop candidosis in turkeys): 16 mg/kg of feed

## O=C(Nc1ccc(OC[C@H]2CO[C@](Cn3ccnc3)(c3ccc(Cl)cc3Cl)O2)cc1)c1ccc(Cl)cc1 (relative stereo)
[2]; Table I
  ED50 (crop candidosis in turkeys): 31 mg/kg of feed

## O=CN1CCN(c2ccc(OC[C@H]3CO[C@](Cn4ccnc4)(c4ccc(Cl)cc4Cl)O3)cc2)CC1 (relative stereo)
[1]
  lowest effective oral dose (vaginal candidosis in rats): < 10

## NC(=O)N1CCN(c2ccc(OC[C@H]3CO[C@](Cn4ccnc4)(c4ccc(Cl)cc4Cl)O3)cc2)CC1 (relative stereo)
[1]
  lowest effective oral dose (vaginal candidosis in rats): 5
[2]; Table I
  ED50 (crop candidosis in turkeys): 125 mg/kg of feed

## CNC(=O)N1CCN(c2ccc(OC[C@H]3CO[C@](Cn4ccnc4)(c4ccc(Cl)cc4Cl)O3)cc2)CC1 (relative stereo)
[1]
  lowest effective oral dose (vaginal candidosis in rats): 2.5
[2]; Table I
  ED50 (crop candidosis in turkeys): 16 mg/kg of feed

## CCNC(=O)N1CCN(c2ccc(OC[C@H]3CO[C@](Cn4ccnc4)(c4ccc(Cl)cc4Cl)O3)cc2)CC1 (relative stereo)
[1]
  lowest effective oral dose (vaginal candidosis in rats): 10
[2]; Table I
  ED50 (crop candidosis in turkeys): 125 mg/kg of feed

## CNC(=S)N1CCN(c2ccc(OC[C@H]3CO[C@](Cn4ccnc4)(c4ccc(Cl)cc4Cl)O3)cc2)CC1 (relative stereo)
[1]
  lowest effective oral dose (vaginal candidosis in rats): 2.5
[2]; Table I
  ED50 (crop candidosis in turkeys): 125 mg/kg of feed

## COC(=O)N1CCN(c2ccc(OC[C@H]3CO[C@](Cn4ccnc4)(c4ccc(Cl)cc4Cl)O3)cc2)CC1 (relative stereo)
[1]
  lowest effective oral dose (vaginal candidosis in rats): 2.5
[2]; Table I
  ED50 (crop candidosis in turkeys): 8 mg/kg of feed

## CN1CCN(c2ccc(OC[C@H]3CO[C@](Cn4ccnc4)(c4ccc(Cl)cc4Cl)O3)cc2)CC1 (relative stereo)
[1]
  lowest effective oral dose (vaginal candidosis in rats): 2.5

## CC(C)CN1CCN(c2ccc(OC[C@H]3CO[C@](Cn4ccnc4)(c4ccc(Cl)cc4Cl)O3)cc2)CC1 (relative stereo)
[2]; Table I
  ED50 (crop candidosis in turkeys): 16 mg/kg of feed

## CC(C)N1CCN(c2ccc(OC[C@H]3CO[C@](Cn4ccnc4)(c4ccc(Cl)cc4Cl)O3)cc2)CC1 (relative stereo)
[1]
  lowest effective oral dose (vaginal candidosis in rats): 2.5

## CCCCN1CCN(c2ccc(OC[C@H]3CO[C@](Cn4ccnc4)(c4ccc(Cl)cc4Cl)O3)cc2)CC1 (relative stereo)
[2]; Table I
  ED50 (crop candidosis in turkeys): 31 mg/kg of feed

## CCCN1CCN(c2ccc(OC[C@H]3CO[C@](Cn4ccnc4)(c4ccc(Cl)cc4Cl)O3)cc2)CC1 (relative stereo)
[1]
  lowest effective oral dose (vaginal candidosis in rats): 2.5
[2]; Table I
  ED50 (crop candidosis in turkeys): 16 mg/kg of feed

## CS(=O)(=O)N1CCN(c2ccc(OC[C@H]3CO[C@](Cn4ccnc4)(c4ccc(Cl)cc4Cl)O3)cc2)CC1 (relative stereo)
[1]
  lowest effective oral dose (vaginal candidosis in rats): 1.25
[2]; Table I
  ED50 (crop candidosis in turkeys): 31 mg/kg of feed

## O=S(=O)(Cc1ccccc1)N1CCN(c2ccc(OC[C@H]3CO[C@](Cn4ccnc4)(c4ccc(Cl)cc4Cl)O3)cc2)CC1 (relative stereo)
[2]; Table I
  ED50 (crop candidosis in turkeys): 16 mg/kg of feed

## NC(=O)CN1CCN(c2ccc(OC[C@H]3CO[C@](Cn4ccnc4)(c4ccc(Cl)cc4Cl)O3)cc2)CC1 (relative stereo)
[1]
  lowest effective oral dose (vaginal candidosis in rats): 1.25

## CCOC(=O)N1CCN(c2cccc(OC[C@H]3CO[C@](Cn4ccnc4)(c4ccc(Cl)cc4Cl)O3)c2)CC1 (relative stereo)
[1]; Table III
  minimal effective dose: 2.5 mg/kg

## CCCN1CCN(c2ccc(OC[C@H]3CO[C@](Cn4cncn4)(c4ccc(Cl)cc4Cl)O3)cc2)CC1 (relative stereo) [(CH2)2CH3]
[2]; Table II
  ED50 (crop candidosis in turkeys): 16 mg/kg of feed

## CCCCN1CCN(c2ccc(OC[C@H]3CO[C@](Cn4cncn4)(c4ccc(Cl)cc4Cl)O3)cc2)CC1 (relative stereo) [(CH2)3CH3]
[2]; Table II
  ED50 (crop candidosis in turkeys): 16 mg/kg of feed

## CC(C)N1CCN(c2ccc(OC[C@H]3CO[C@](Cn4cncn4)(c4ccc(Cl)cc4Cl)O3)cc2)CC1 (relative stereo) [CH(CH3)2]
[1]; Table II
  minimal effective dose: 2.5 mg/kg

## CCCC(=O)N1CCN(c2ccc(OC[C@H]3CO[C@](Cn4cncn4)(c4ccc(Cl)cc4Cl)O3)cc2)CC1 (relative stereo) [CO(CH2)2CH3, cis-1-{4-[2-(2,4-dichlorophenyl)-2-(1H-1,2,4-triazol-1-ylmethyl)-1,3-dioxolan-4-ylmethoxy]phenyl}-4-(1-oxobutyl)piperazine dihydrochloride]
[2]; Table II
  ED50 (crop candidosis in turkeys): 16 mg/kg of feed

## CCC(=O)N1CCN(c2ccc(OC[C@H]3CO[C@](Cn4cncn4)(c4ccc(Cl)cc4Cl)O3)cc2)CC1 (relative stereo) [COC2 H5, cis-1{4-[2-(2,4-dichlorophenyl)-2-(1H-1,2,4-triazol-1-ylmethyl)-1,3-dioxolan-4-ylmethoxy]phenyl}-4-(1-oxopropyl)piperazine dihydrochloride]
[2]; Table II
  ED50 (crop candidosis in turkeys): 8 mg/kg of feed

## O=C(c1ccccc1)N1CCN(c2ccc(OC[C@H]3CO[C@](Cn4cncn4)(c4ccc(Cl)cc4Cl)O3)cc2)CC1 (relative stereo) [COC6 H5, cis-1-benzoyl-4-{4-[2-(2,4-dichlorophenyl)-2-(1H-1,2,4-triazol-1-ylmethyl)-1,3-dioxolan-4-ylmethoxy]phenyl}piperazine]
[1]; Table II
  minimal effective dose: 1.25 mg/kg

## CCOC(=O)N1CCN(c2ccc(OC[C@H]3CO[C@](Cn4cncn4)(c4ccc(Cl)cc4Cl)O3)cc2)CC1 (relative stereo) [COOC2 H5, cis-ethyl 4-{4-[2-(2,4-dichlorophenyl)-2-(1H-1,2,4-triazol-1-ylmethyl)-1,3-dioxolan-4-ylmethoxy]phenyl}1-piperazinecarboxylate dihydrochloride]
[2]; Table II
  ED50 (crop candidosis in turkeys): 8 mg/kg of feed

## O=C(Oc1ccccc1)N1CCN(c2ccc(OC[C@H]3CO[C@](Cn4cncn4)(c4ccc(Cl)cc4Cl)O3)cc2)CC1 (relative stereo) [COOC6 H5, cis-phenyl 4-{4-[2-(2,4-dichlorophenyl)-2-(1H-1,2,4-triazol-1-ylmethyl)-1,3-dioxolan-4-ylmethoxy]phenyl}-1-piperazinecarboxylate]
[2]; Table II
  ED50 (crop candidosis in turkeys): 16 mg/kg of feed

## COC(=O)N1CCN(c2ccc(OC[C@H]3CO[C@](Cn4cncn4)(c4ccc(Cl)cc4Cl)O3)cc2)CC1 (relative stereo) [COOCH 3, cis-methyl 4-{4-[2-(2,4-dichlorophenyl)-2-(1H-1,2,4-triazol-1-ylmethyl)-1,3-dioxolan-4-ylmethoxy]phenyl}-1-piperazinecarboxylate]
[2]; Table II
  ED50 (crop candidosis in turkeys): 8 mg/kg of feed

## CNc1ccc(OC[C@H]2CO[C@](Cn3ccnc3)(c3ccc(Cl)cc3Cl)O2)cc1 (relative stereo) [NHCH3, cis-4-[2-(2,4-dichlorophenyl)-2-(1H-imidazol-1-ylmethyl)-1,3-dioxolan-4-ylmethoxy]-N-methylbenzenamine]
[1]
  lowest effective oral dose (vaginal candidosis in rats): 5

## NC(=S)Nc1ccc(OC[C@H]2CO[C@](Cn3ccnc3)(c3ccc(Cl)cc3Cl)O2)cc1 (relative stereo) [NHCSNH2, cis-N-{4-[2-(2,4-dichlorophenyl)-2-(1H-imidazol-1-yl-methyl)-1,3-dioxolan-4-ylmethoxy]phenyl}thiourea]
[1]
  lowest effective oral dose (vaginal candidosis in rats): 20

## O=S(=O)(Cc1ccccc1)N1CCN(c2ccc(OC[C@H]3CO[C@](Cn4cncn4)(c4ccc(Cl)cc4Cl)O3)cc2)CC1 (relative stereo) [SO2CH2C6H5, cis-1-{4-[2-(2,4-dichlorophenyl)-2-(1H-1,2,4-triazol-1-ylmethyl)-1,3-dioxolan-4-ylmethoxy]phenyl}-4-(phenylmethylsulfonyl)piperazine monohydrate]
[2]; Table II
  ED50 (crop candidosis in turkeys): 16 mg/kg of feed

## CCN1CCN(c2ccc(OC[C@H]3CO[C@](Cn4ccnc4)(c4ccc(Cl)cc4Cl)O3)cc2)CC1 (relative stereo) [drawing 49]
[1]
  lowest effective oral dose (vaginal candidosis in rats): < 2.5

## COc1ccc(C2(Cn3ccnc3)OCC(COc3ccc(N4CCN(C(C)=O)CC4)cc3)O2)cc1 (stereo not drawn) [1-acetyl-4-{4-[2-(1H-imidazol-1-ylmethyl)-2-(4-methoxyphenyl)-1,3-dioxolan-4-ylmethoxy]phenyl}piperazine]
[2]; Table III
  ED50 (crop candidosis in turkeys): 31 mg/kg of feed

## CCOC(=O)N1CCN(c2ccc(OCC3COC(Cn4ccnc4)(c4ccc(OC)cc4)O3)cc2)CC1 (stereo not drawn) [ethyl 4-{4-[2-(1H-imidazol-1-ylmethyl)-2-(4-methoxyphenyl)-1,3-dioxolan-4-ylmethoxy]phenyl}-1-piperazinecarboxylate (E)-2-butenedioate (2:1)]
[1]; Table III
  minimal effective dose: 2.5 mg/kg

From patent US4223036A, “1-(1,3-Dioxolan-2-ylmethyl)-1H-1,2,4-triazoles” (Janssen Pharmaceutica N.V., priority 1979, dated 1980)
